Assay results: patent US20190038628A1, “USE OF INHIBITORS OF THE ACTIVITY OR FUNCTION OF PI3K FOR THE TREATMENT OF PRIMARY SJOGREN'S SYNDROME” (Novartis AG, priority 2016, published 2019)

Test system: B cells from Buffy Coat
Assay: CXCL13-induced B cell migration (transwell)
Assay type: cell-based, human
Conditions: for cell count (migrated B cells): mean of 4 wells
Protocol: PBMC were isolated from Buffy Coat as described above. Cells were washed two times with PBS and then resuspended at 5×10^7/mL in PBS containing 2% FBS and 1 mM EDTA. Further B cell purification was performed via depletion of non-B cells with an EasySep™ Human B Cell Enrichment Kit (STEMCELL Technologies #19054) according to the manufacture's instruction. In brief, 4×10^8 PBMCs in 8 ml isolation buffer were incubated with 400 ul of enrichment cocktail in a 14 mL round-bottom tube for 10 minutes at room temperature. PBMC were further incubated with 600 ul of magnetic particles for 5 minutes at room. For B cell isolation, the tube was placed into the magnet for 5 min and enriched B cells were collected in a fresh 14 ml tube. Cells were then washed and resuspended at 5×10^6/mL in RPMI 1640 medium supplemented with 10% FBS, Gentamycine (50 ug/ml), Insulin-Transferrin-Selenium and P-Mercaptoethanol (50 uM).
Isolated B cells were dispensed to 5 ml round-bottom tube (Costar #352054) and incubated with pre-diluted compound A resulting in a dilution with a final concentration of 10, 1, 0.1 or 0.01 uM. Control samples were pretreated with DMSO to obtain a final concentration of 0.1% DMSO. Samples were mixed thoroughly and incubated in a water bath at 37° C. for 30 minutes. Some 235 ul of CXCL13 (R&D Systems #801-CX) in a dilution with a final concentration of 100 nM was added to the wells of the 96-well transwell receiver plate (Costar #3387). Control wells were filled with 235 ul medium. The 5 um permeable support insert was added to the receiver plate and filled with 80 ul of pre-incubated B cells. Transwell plate was incubated in a humified incubator at 37° C. for 3 h. Permeable support insert was removed and cell number in receiver plate was assessed by flow cytometry.

CCC(=O)N1CC[C@H](Nc2ncnc3c2CN(c2cnc(OC)c(C(F)(F)F)c2)CC3)C1 [Compound A, 1-{(S)-3-[6-(6-Methoxy-5-trifluoromethyl-pyridin-3-yl)-5,6,7,8-tetrahydro-pyrido[4,3-d]pyrimidin-4-ylamino]-pyrrolidin-1-yl}-propan-1-one]
inhibition at 0.01 µM (Homo sapiens, B-cell, compound A 10 nM): 13% | inhibition at 0.1 µM (Homo sapiens, B-cell, compound A 100 nM): 39% | inhibition at 1 µM (Homo sapiens, B-cell, compound A 1000 nM): 52% | inhibition at 10 µM (Homo sapiens, B-cell, compound A 10000 nM): 79% | cell count (migrated B cells) (compound A 10 nM): 6165 | cell count (migrated B cells) (compound A 100 nM): 4556 | cell count (migrated B cells) (compound A 1000 nM): 3743 | cell count (migrated B cells) (compound A 10000 nM): 2043
